Measured values as given in ChEMBL document CHEMBL5352419, “Design, synthesis, and biological evaluation of tetrahydroquinoline amphiphiles as membrane-targeting antimicrobials against pathogenic bacteria and fungi” (Eur J Med Chem, 2022).
Values after ≈ are worked out from the molar mass of the structure shown. Active and inactive are the calls of the source. The rule behind the calls is not given here.

What was measured:
[1] = system: Escherichia coli; assay: Induction of drug resistance in Escherichia coli ATCC25922 assessed as fold increase in MIC at sub-inhibitory concentration incubated for 21 to 22 passages; type: functional
[2] = system: Candida albicans; assay: Antimicrobial activity against Candida albicans ATCC10231 assessed as fungal growth inhibition incubated for 48 hrs by Sabouraud Dextrose broth based dilution assay; type: functional
[3] = system: Candida albicans; assay: Antimicrobial activity against Candida albicans CMCC98001 assessed as fungal growth inhibition incubated for 48 hrs by Sabouraud Dextrose broth based dilution assay; type: functional
[4] = system: Staphylococcus aureus; assay: Antimicrobial activity against Staphylococcus aureus ATCC29213 assessed as bacterial growth inhibition incubated for 24 hrs by Muller Hinton broth based dilution assay; type: functional
[5] = system: Staphylococcus aureus; assay: Antimicrobial activity against methicillin-resistant Staphylococcus aureus N315 assessed as bacterial growth inhibition incubated for 24 hrs by Muller Hinton broth based dilution assay; type: functional
[6] = system: Staphylococcus aureus; assay: Antimicrobial activity against methicillin-resistant Staphylococcus aureus NCTC10442 assessed as bacterial growth inhibition incubated for 24 hrs by Muller Hinton broth based dilution assay; type: functional
[7] = system: Escherichia coli; assay: Antimicrobial activity against Escherichia coli ATCC25922 assessed as bacterial growth inhibition incubated for 24 hrs by Muller Hinton broth based dilution assay; type: functional
[8] = Hemolytic activity in rabbit RBC incubated for 1 hr by absorbance based microplate reader assay; type: toxicity, cell-based, Oryctolagus cuniculus, Erythrocyte; details: rabbit red blood cells (erythrocytes)
[9] = system: Pseudomonas aeruginosa; assay: Antimicrobial activity against Pseudomonas aeruginosa ATCC9027 assessed as bacterial growth inhibition incubated for 24 hrs by Muller Hinton broth based dilution assay; type: functional
[10] = system: Acinetobacter baumannii; assay: Antimicrobial activity against Acinetobacter baumannii ATCC17978 assessed as bacterial growth inhibition incubated for 24 hrs by Muller Hinton broth based dilution assay; type: functional
[11] = system: Acinetobacter baumannii; assay: Antimicrobial activity against Acinetobacter baumannii R2889 assessed as bacterial growth inhibition incubated for 24 hrs by Muller Hinton broth based dilution assay; type: functional
[12] = system: Klebsiella pneumoniae; assay: Antimicrobial activity against Klebsiella pneumoniae ATCC10031 assessed as bacterial growth inhibition incubated for 24 hrs by Muller Hinton broth based dilution assay; type: functional
[13] = system: Klebsiella pneumoniae; assay: Antimicrobial activity against Klebsiella pneumoniae ATCC14581 assessed as bacterial growth inhibition incubated for 24 hrs by Muller Hinton broth based dilution assay; type: functional
[14] = system: Cell membrane; assay: Disruption of outer membrane integrity in Acinetobacter baumannii ATCC17978 at 25 ug/mL; details: dose 25.0 µg/ml
[15] = system: Staphylococcus aureus; assay: Induction of drug resistance in Staphylococcus aureus ATCC29213 assessed as fold increase in MIC at sub-inhibitory concentration incubated for 21 to 22 passages; type: functional
[16] = system: Escherichia coli; assay: Antibiofilm activity against Escherichia coli ATCC25922 assessed as inhibition of biofilm formation at 0.39 ug/mL incubated for 24 hrs by crystal violet staining based analysis relative to control; type: functional; details: dose 0.39 µg/ml
[17] = system: Escherichia coli; assay: Antibiofilm activity against Escherichia coli ATCC25922 assessed as inhibition of biofilm formation at 0.78 ug/mL incubated for 24 hrs by crystal violet staining based analysis relative to control; type: functional; details: dose 0.78 µg/ml
[18] = system: Escherichia coli; assay: Antibiofilm activity against Escherichia coli ATCC25922 assessed as inhibition of biofilm formation at 3.125 ug/mL incubated for 24 hrs by crystal violet staining based analysis relative to control; type: functional; details: dose 3.125 µg/ml
[19] = system: Escherichia coli; assay: Antibiofilm activity against Escherichia coli ATCC25922 assessed as inhibition of biofilm formation at 6.25 ug/mL incubated for 24 hrs by crystal violet staining based analysis relative to control; type: functional; details: dose 6.25 µg/ml
[20] = system: Escherichia coli; assay: Disruption of preformed biofilm in Escherichia coli ATCC25922 assessed as residual preformed biofilm at 6.25 ug/mL incubated for 24 hrs by crystal violet staining based analysis relative to control; type: functional; details: dose 6.25 µg/ml
[21] = system: Escherichia coli; assay: Disruption of preformed biofilm in Escherichia coli ATCC25922 assessed as residual preformed biofilm at 0.78 ug/mL incubated for 24 hrs by crystal violet staining based analysis relative to control; type: functional; details: dose 0.78 µg/ml
[22] = system: Escherichia coli; assay: Disruption of preformed biofilm in Escherichia coli ATCC25922 assessed as residual preformed biofilm at 3.125 ug/mL incubated for 24 hrs by crystal violet staining based analysis relative to control; type: functional; details: dose 3.125 µg/ml
[23] = system: Escherichia coli; assay: Disruption of preformed biofilm in Escherichia coli ATCC25922 assessed as residual preformed biofilm at 12.5 ug/mL incubated for 24 hrs by crystal violet staining based analysis relative to control; type: functional; details: dose 12.5 µg/ml
[24] = system: Escherichia coli; assay: Disruption of preformed biofilm in Escherichia coli ATCC25922 assessed as residual preformed biofilm at 25 ug/mL incubated for 24 hrs by crystal violet staining based analysis relative to control; type: functional; details: dose 25.0 µg/ml

| Molecule | MIC [2] | MIC [3] | MIC [4] | MIC [5] | MIC [6] | MIC [7] | HC50 at 1 h [8] | MIC [9] | MIC [10] | MIC [11] | MIC [12] | MIC [13] | also measured |
| --- | --- | --- | --- | --- | --- | --- | --- | --- | --- | --- | --- | --- | --- |
| CC1(C)S[C@@H]2[C@H](NC(=O)[C@H](N)c3ccc(O)cc3)C(=O)N2[C@H]1C(=O)O |  |  |  |  |  |  |  |  |  |  |  |  | fold change (FC) [1]: 16 |
| CCCCCCCN1CCCc2cc(OCCCCCCCCNC(=N)N)ccc21 | 0.78 µg/mL (≈ 1.87 µM) | 0.39 µg/mL (≈ 0.936 µM) | 1.56 µg/mL (≈ 3.74 µM) | 0.78 µg/mL (≈ 1.87 µM) | 0.78 µg/mL (≈ 1.87 µM) | 3.12 µg/mL (≈ 7.5 µM) | > 200 µg/mL | > 50 µg/mL | 25 µg/mL (≈ 60 µM) | 12.5 µg/mL (≈ 30 µM) | 12.5 µg/mL (≈ 30 µM) | 12.5 µg/mL (≈ 30 µM) | Activity [14]: inactive |
| CC(C)=CCN1CCCc2cc(OCCCCCCCCCCNC(=N)N)ccc21 | 1.56 µg/mL (≈ 3.76 µM) | 1.56 µg/mL (≈ 3.76 µM) | 1.56 µg/mL (≈ 3.76 µM) | 0.78 µg/mL (≈ 1.88 µM) | 1.56 µg/mL (≈ 3.76 µM) | 12.5 µg/mL (≈ 30.1 µM) | > 200 µg/mL | 50 µg/mL (≈ 121 µM) | 25 µg/mL (≈ 60.3 µM) | 12.5 µg/mL (≈ 30.1 µM) | 3.12 µg/mL (≈ 7.54 µM) | 6.25 µg/mL (≈ 15.1 µM) |  |
| CCn1cc(C(=O)O)c(=O)c2cc(F)c(N3CCNCC3)cc21 |  |  |  |  |  |  |  |  |  |  |  |  | fold change (FC) [15]: 1024 |
| CCCCCCCCCN1CCCc2cc(OCC(=O)N[C@@H](CCCNC(=N)N)C(=O)N[C@@H](CCCNC(=N)N)C(=O)OC)ccc21 | > 50 µg/mL | 50 µg/mL (≈ 75.8 µM) | 1.56 µg/mL (≈ 2.36 µM) | 1.56 µg/mL (≈ 2.36 µM) | 1.56 µg/mL (≈ 2.36 µM) | 3.12 µg/mL (≈ 4.74 µM) | > 200 µg/mL | 6.25 µg/mL (≈ 9.47 µM) | 6.25 µg/mL (≈ 9.47 µM) | 25 µg/mL (≈ 37.9 µM) | 3.12 µg/mL (≈ 4.74 µM) | 3.12 µg/mL (≈ 4.74 µM) |  |
| CCCCCCCCCN1CCCc2cc(OCC(=O)N[C@@H](CCCNC(=N)N)C(=O)OC)ccc21 | 3.12 µg/mL (≈ 6.2 µM) | 3.12 µg/mL (≈ 6.2 µM) | 3.12 µg/mL (≈ 6.2 µM) | 1.56 µg/mL (≈ 3.1 µM) | 1.56 µg/mL (≈ 3.1 µM) | 6.25 µg/mL (≈ 12.4 µM) | > 200 µg/mL | 12.5 µg/mL (≈ 24.8 µM) | 6.25 µg/mL (≈ 12.4 µM) | 6.25 µg/mL (≈ 12.4 µM) | 3.12 µg/mL (≈ 6.2 µM) | 3.12 µg/mL (≈ 6.2 µM) |  |
| CCCCCN1CCCc2cc(OCCCCNC(=N)N)ccc21 | 50 µg/mL (≈ 150 µM) | 50 µg/mL (≈ 150 µM) | 1.56 µg/mL (≈ 4.69 µM) | 1.56 µg/mL (≈ 4.69 µM) | 1.56 µg/mL (≈ 4.69 µM) | 12.5 µg/mL (≈ 37.6 µM) | 178 µg/mL | 25 µg/mL (≈ 75.2 µM) | 12.5 µg/mL (≈ 37.6 µM) | 25 µg/mL (≈ 75.2 µM) | 6.25 µg/mL (≈ 18.8 µM) | 12.5 µg/mL (≈ 37.6 µM) |  |
| CCCCCCCN1CCCc2cc(OCCCCNC(=N)N)ccc21 | 6.25 µg/mL (≈ 17.3 µM) | 3.12 µg/mL (≈ 8.67 µM) | 1.56 µg/mL (≈ 4.33 µM) | 0.78 µg/mL (≈ 2.16 µM) | 0.78 µg/mL (≈ 2.16 µM) | 3.12 µg/mL (≈ 8.67 µM) | 169 µg/mL | 6.25 µg/mL (≈ 17.3 µM) | 6.25 µg/mL (≈ 17.3 µM) | 6.25 µg/mL (≈ 17.3 µM) | 1.56 µg/mL (≈ 4.33 µM) | 1.56 µg/mL (≈ 4.33 µM) |  |
| CCCCCCCCCN1CCCc2cc(OCC(=O)N[C@@H](CCCNC(=N)N)C(N)=O)ccc21 | 3.12 µg/mL (≈ 6.39 µM) | 3.12 µg/mL (≈ 6.39 µM) | 1.56 µg/mL (≈ 3.19 µM) | 1.56 µg/mL (≈ 3.19 µM) | 1.56 µg/mL (≈ 3.19 µM) | 3.12 µg/mL (≈ 6.39 µM) | > 200 µg/mL | 6.25 µg/mL (≈ 12.8 µM) | 12.5 µg/mL (≈ 25.6 µM) | 12.5 µg/mL (≈ 25.6 µM) | 3.12 µg/mL (≈ 6.39 µM) | 3.12 µg/mL (≈ 6.39 µM) |  |
| CCCCCCCCCN1CCCc2cc(OCC(=O)N[C@@H](CCCNC(=N)N)C(=O)N[C@@H](CCCNC(=N)N)C(N)=O)ccc21 | > 50 µg/mL | 50 µg/mL (≈ 77.5 µM) | 3.12 µg/mL (≈ 4.85 µM) | 3.12 µg/mL (≈ 4.85 µM) | 3.12 µg/mL (≈ 4.85 µM) | 25 µg/mL (≈ 38.8 µM) | > 200 µg/mL | 25 µg/mL (≈ 38.8 µM) | 12.5 µg/mL (≈ 19.4 µM) | 50 µg/mL (≈ 77.5 µM) | 6.25 µg/mL (≈ 9.69 µM) | 6.25 µg/mL (≈ 9.69 µM) |  |
| POLYMYXIN B |  |  |  |  |  |  |  |  |  |  |  |  | inhibition [16]: 22.9%; inhibition [17]: 43.3%; inhibition [18]: 99.8%; inhibition [19]: 100%; Activity [20]: 7.57%; Activity [21]: 87.5%; Activity [22]: 19.2%; Activity [23]: 8.48%; Activity [24]: 6.65% |
| CC(C)=CCN1CCCc2cc(OCCCCCCCCCCCCNC(=N)N)ccc21 | 0.78 µg/mL (≈ 1.76 µM) | 0.78 µg/mL (≈ 1.76 µM) | 1.56 µg/mL (≈ 3.52 µM) | 0.78 µg/mL (≈ 1.76 µM) | 0.78 µg/mL (≈ 1.76 µM) | 12.5 µg/mL (≈ 28.2 µM) | > 200 µg/mL | 50 µg/mL (≈ 113 µM) | 12.5 µg/mL (≈ 28.2 µM) | 12.5 µg/mL (≈ 28.2 µM) | 3.12 µg/mL (≈ 7.06 µM) | 3.12 µg/mL (≈ 7.06 µM) |  |
| CC(C)=CCC/C(C)=C/CN1CCCc2cc(OCCCCNC(=N)N)ccc21 | 3.12 µg/mL (≈ 7.84 µM) | 1.56 µg/mL (≈ 3.91 µM) | 0.78 µg/mL (≈ 1.96 µM) | 0.78 µg/mL (≈ 1.96 µM) | 0.78 µg/mL (≈ 1.96 µM) | 3.12 µg/mL (≈ 7.84 µM) | 154 µg/mL | 6.25 µg/mL (≈ 15.7 µM) | 3.12 µg/mL (≈ 7.84 µM) | 3.12 µg/mL (≈ 7.84 µM) | 1.56 µg/mL (≈ 3.91 µM) | 1.56 µg/mL (≈ 3.91 µM) |  |
